Data from PMC10817917, “Alkyl deoxyglycoside-polymyxin combinations against critical priority carbapenem-resistant gram-negative bacteria” (Scientific Reports, 2024).
Read-outs that look alike come from different tables or passages of the source.

Assays:
[1] = tested on: E. coli ATCC 25922; test: Broth microdilution MIC/MBC, glycosides with or without polymyxins; type: cell-based, Escherichia coli; conditions: for MIC: Escherichia coli, ATCC25922
[2] = tested on: K. pneumoniae CQ4921; test: as above; type: cell-based, Klebsiella pneumoniae; conditions: for MIC: Klebsiella pneumoniae, CQ4921
[3] = tested on: E. cloacae CQ1941; test: as above; type: cell-based; conditions: for MIC: Enterobacter cloacae, CQ1941
[4] = tested on: K. pneumoniae CQ1947; test: Broth microdilution MIC, glycosides with or without polymyxins; type: cell-based, Klebsiella pneumoniae; conditions: for MIC: Klebsiella pneumoniae, CQ1947
[5] = tested on: Caco-2 cells; test: Resazurin cell viability assay (cytotoxicity); type: cell-based, human; conditions: Homo sapiens, Caco-2, 72 h, read-out: IC50
In short: (§1)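 HEK-293T and Caco-2 cells (1.5 × 10^4/well, RPMI 1640 with 10% FBS) exposed 72 h at 37 °C to glycosides at final 100 to 10 µM, alone or with PMB or colistin at final 0.5, 0.25 or 0.125 µg/mL; max DMSO 0.33%. Resazurin added 4 h, read 570/600 nm; IC50 from dose-response fits, mean ± SD of three replicates.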

[6] = tested on: HEK-293T cells; test: Resazurin cell viability assay (cytotoxicity); type: cell-based, human; conditions: Homo sapiens, HEK-293T, 72 h, read-out: IC50
In short: as §1

[7] = tested on: Bacillus anthracis (Sterne, ovine and pathogenic forms), Enterococcus faecalis and Bacillus cereus; conditions: Gram-positive bacteria; cited from earlier work
[8] = alone, read-out: MICA (MIC of each compound individually)
[9] = combination with the lowest FICI
[10] = compound + colistin, lowest FICI
[11] = tested alone (no polymyxin adjuvant)

## CCCCCCCCCCCCO[C@@H]1C[C@@H](O)[C@H](O)[C@@H](CO)O1 [Compound 4, dodecyl 2-deoxy-α-D-arabino-hexopyranoside]
[1]; Cpd conc. 0.4 μg/mL, strain A
  MIC of colistin in combination with the compound: 0.5 µg/mL
[1]; Cpd conc. 0.8 μg/mL, strain A
  MIC of colistin in combination with the compound: 0.5 µg/mL
[1]; Cpd conc. 3.125 μg/mL, strain A
  MIC of colistin in combination with the compound: 0.5 µg/mL
[1]; Cpd conc. 6.25 μg/mL, strain A
  MIC of colistin in combination with the compound: 0.5 µg/mL
[1]; Cpd conc. 12.5 μg/mL, strain A
  MIC of colistin in combination with the compound: 0.5 µg/mL
[1]; Cpd conc. […], strain A
  MIC of colistin in combination with the compound: 0.5 µg/mL
[1]; agent alone, no adjuvant (polymyxin conc. 0), strain A, read-out: MIC
  MIC: > 100 µg/mL
[1]; [8]
  MIC: > 100 µg/mL
[1]; PMB 0.25 μg/mL, strain A
  MIC of compound in combination with PMB: > 100 µg/mL
[1]; PMB 0.5 μg/mL, strain A
  MIC of compound in combination with PMB: ≤ 0.1 µg/mL
[1]; colistin 0.5 μg/mL, strain A
  MIC of compound in combination with colistin: ≤ 0.1 µg/mL
[1]; [9]
  MICA(A + B) (MIC of compound in combination with colistin): 0.4 µg/mL
  MICB(A + B) (MIC of colistin in combination with compound): 0.5 µg/mL
[1]; compound + colistin
  Interpretation (of FICI): Indifferent (1.0 to 4.0 were indifferent)
[1]; [10]
  FICI: 1.002
[2]; Cpd conc. 0.4 μg/mL, strain C
  MIC of colistin in combination with the compound: 0.5 µg/mL
[2]; Cpd conc. 0.8 μg/mL, strain C
  MIC of colistin in combination with the compound: 0.5 µg/mL
[2]; Cpd conc. 3.125 μg/mL, strain C
  MIC of colistin in combination with the compound: 0.5 µg/mL
[2]; Cpd conc. 6.25 μg/mL, strain C
  MIC of colistin in combination with the compound: 0.5 µg/mL
[2]; Cpd conc. 12.5 μg/mL, strain C
  MIC of colistin in combination with the compound: 0.5 µg/mL
[2]; Cpd conc. […], strain C
  MIC of colistin in combination with the compound: 0.5 µg/mL
[2]; agent alone, no adjuvant (polymyxin conc. 0), strain C, read-out: MIC
  MIC: > 100 µg/mL
[2]; [8]
  MIC: > 100 µg/mL
[2]; PMB 0.25 μg/mL, strain C
  MIC of compound in combination with PMB: > 100 µg/mL
[2]; PMB 0.5 μg/mL, strain C
  MIC of compound in combination with PMB: 1.6 µg/mL
[2]; colistin 0.25 μg/mL, strain C
  MIC of compound in combination with colistin: > 100 µg/mL
[2]; colistin 0.5 μg/mL, strain C
  MIC of compound in combination with colistin: ≤ 0.1 µg/mL
[2]; [9]
  MICA(A + B) (MIC of compound in combination with colistin): 0.4 µg/mL
  MICB(A + B) (MIC of colistin in combination with compound): 0.5 µg/mL
[2]; compound + colistin
  Interpretation (of FICI): Indifferent (1.0 to 4.0 were indifferent)
[2]; [10]
  FICI: 1.002
[3]; Cpd conc. 0.4 μg/mL, strain D
  MIC of colistin in combination with the compound: 0.5 µg/mL
[3]; Cpd conc. 0.8 μg/mL, strain D
  MIC of colistin in combination with the compound: 0.5 µg/mL
[3]; Cpd conc. 3.125 μg/mL, strain D
  MIC of colistin in combination with the compound: 0.5 µg/mL
[3]; Cpd conc. 6.25 μg/mL, strain D
  MIC of colistin in combination with the compound: 0.5 µg/mL
[3]; Cpd conc. 12.5 μg/mL, strain D
  MIC of colistin in combination with the compound: 0.5 µg/mL
[3]; Cpd conc. […], strain D
  MIC of colistin in combination with the compound: 0.5 µg/mL
[3]; agent alone, no adjuvant (polymyxin conc. 0), strain D, read-out: MIC
  MIC: > 100 µg/mL
[3]; [8]
  MIC: > 100 µg/mL
[3]; PMB 0.25 μg/mL, strain D
  MIC of compound in combination with PMB: > 100 µg/mL
[3]; PMB 0.5 μg/mL, strain D
  MIC of compound in combination with PMB: ≤ 0.1 µg/mL
[3]; colistin 0.25 μg/mL, strain D
  MIC of compound in combination with colistin: > 100 µg/mL
[3]; colistin 0.5 μg/mL, strain D
  MIC of compound in combination with colistin: ≤ 0.1 µg/mL
[3]; [9]
  MICA(A + B) (MIC of compound in combination with colistin): 0.4 µg/mL
  MICB(A + B) (MIC of colistin in combination with compound): 0.5 µg/mL
[3]; compound + colistin
  Interpretation (of FICI): Indifferent (1.0 to 4.0 were indifferent)
[3]; [10]
  FICI: 1.002
[4]; Cpd conc. 0.4 μg/mL, strain F
  MIC of colistin in combination with the compound: 0.5 µg/mL
[4]; Cpd conc. 0.8 μg/mL, strain F
  MIC of colistin in combination with the compound: 0.5 µg/mL
[4]; Cpd conc. 3.125 μg/mL, strain F
  MIC of colistin in combination with the compound: 0.5 µg/mL
[4]; Cpd conc. 6.25 μg/mL, strain F
  MIC of colistin in combination with the compound: 0.5 µg/mL
[4]; Cpd conc. 12.5 μg/mL, strain F
  MIC of colistin in combination with the compound: 0.5 µg/mL
[4]; Cpd conc. […], strain F
  MIC of colistin in combination with the compound: 0.5 µg/mL
[4]; agent alone, no adjuvant (polymyxin conc. 0), strain F, read-out: MIC
  MIC: > 100 µg/mL
[4]; [8]
  MIC: > 100 µg/mL
[4]; PMB 0.25 μg/mL, strain F
  MIC of compound in combination with PMB: > 100 µg/mL
[4]; PMB 0.5 μg/mL, strain F
  MIC of compound in combination with PMB: > 100 µg/mL
[4]; colistin 0.25 μg/mL, strain F
  MIC of compound in combination with colistin: > 100 µg/mL
[4]; colistin 0.5 μg/mL, strain F
  MIC of compound in combination with colistin: ≤ 0.1 µg/mL
[4]; [9]
  MICA(A + B) (MIC of compound in combination with colistin): 0.4 µg/mL
  MICB(A + B) (MIC of colistin in combination with compound): 0.5 µg/mL
[4]; compound + colistin
  Interpretation (of FICI): Indifferent (1.0 to 4.0 were indifferent)
[4]; [10]
  FICI: 1.002
[5]; Colistin 0.5 μg/mL
  IC50: > 100 µM
[5]; No polymyxin
  IC50: > 100 µM
[5]; [11]
  IC50: > 33 µg/mL
[6]; Colistin 0.5 μg/mL
  IC50: > 100 µM
[6]; No polymyxin
  IC50: > 100 µM
[6]; PMB 0.5 μg/mL
  IC50: > 100 µM
[6]; [11]
  IC50: > 33 µg/mL
[7]
  MIC: 12 to 386 µM
